In patent publication US20260176313A1, “TGF-BETA-1 VACCINE” (IO BIOTECH APS, priority 2022, published 2026):

What was measured:
[1] = tested on: PBMCs from healthy donors; test: In vitro IFNγ ELISPOT screening for immune responses to TGFb-1 peptides; assay type: cell-based, human; conditions: for Positive Donors (out of 14): donors with significant response: Fisher test <0.01, ratio peptide:control >2, background subtracted spots >25; for Median Spots: median of background subtracted average spots for each donor across all 14 donors, 7 days after peptide stimulation
Description: FIG. 6. IFNγ ELISPOT identifies strong and frequent immune responses. Immune responses to TGFb-1 peptides were identified in PBMCs from 14 healthy donors. PBMCs were stimulated with the indicated TGFb-1 peptides and responses were analyzed after seven days by IFNγ ELISPOT. Significant responses (*) were defined by a Fisher exact P value<0.01, a ratio of peptide to control spots>2, and background subtracted spots>25. Peptides that elicited responses in the greatest number of donors were subsequently tested for the specificity of the response to TGFb-1.
(§1) For in vitro ELISPOT, peripheral blood […] cells (PBMCs) from healthy donors were pulsed with 20 μM of TGFb-derived peptides and 20 U/ml IL-2 in 24-well plates for 7 days before being used in an ELISPOT assay. The cells were placed in 96-well nitrocellulose ELISPOT plates (MultiScreen IP Filter Plate, MSIPN4W50; Millipore) pre-coated with interferon gamma (IFNγ) capture antibody (Mabtech). TGFb peptides are added to a final concentration of 5 μM, control stimulation (DMSO) added to control wells and plates are incubated at 37° C. for 16-20 hours. After the incubation the cells were washed off and secondary biotinylated Ab (Mabtech) was added for 2 hours at room temperature. Unbound secondary antibody was washed off and streptavidin conjugated alkaline phosphatase (AP) (Mabtech) was added for 1 hour at room temperature. Unbound conjugated enzyme was washed off and the assay was developed by adding BCIP/NBT substrate (Mabtech). Developed ELISPOT plates were analysed on CTL ImmunoSpot S6 Ultimate-V analyzer using Immunospot software v5.1.
(§2) In order to identify whether the low homology peptides selected based on sequence alignment were able to elicit immune responses in humans, the IFNγ ELISPOT assay was used. PBMCs from a total of 14 healthy donors were used to screen for immune responses. PBMCs were exposed to each peptide individually to induce a peptide-specific immune response and proliferation of peptide-specific T cells. Seven days later, the frequency of peptide-specific T cells were assayed by IFNγ ELISPOT. IFNγ ELISPOT identified several peptides that elicited strong (number of spots) and frequent (number of donors) immune responses, as shown in FIG. 6. Five peptides were selected on this basis (see Table 4). These five peptides were subsequently assayed for TGFb-1-selectivity by assaying for cross-reactive immune responses to TGFb-2 and TGFb-3 peptides in the IFNγ ELISPOT assay, as shown in FIG. 7 and FIG. 8.

[2] = tested on: PBMCs from healthy donors; test: IFNγ ELISPOT recall assay for cross-reactive responses to homologous TGFb-2 and TGFb-3 peptides; assay type: cell-based, human; conditions: for TGFb-1 selectivity / cross-reactivity of IFNγ ELISPOT immune response to homologous TGFb-2 and TGFb-3 peptides: donor PBMCs stimulated with TGFb-1 peptide, recall after seven days
Description: FIG. 7A-B. IFNγ ELISPOT to identify TGFb-1-selective immune responses. Donor PBMCs were stimulated with the indicated TGFb-1 peptides (Pep01-1, Pep04-1, Pep05-1, Pep08-1, Pep09-1 and Pep12-1) and after seven days were tested for a recall response by IFNγ ELISPOT assay using the same TGFb-1 peptide, or homologous TGFb-2 peptide (i.e. Pep01-2, Pep04-2, Pep05-2, Pep08-2, Pep09-2 or Pep12-2) or TGFb-3 peptide (i.e. Pep01-3, Pep04-3, Pep05-3, Pep08-3, Pep09-3 or Pep12-3). The highly homologous peptides Pep12-1, Pep12-2 and Pep12-3 were included as positive controls for detecting cross-reactive immune responses to TGFb-2 and TGFb-3. In FIG. 7A, for each peptide tested, boxplots on the left hand side correspond to responses using the same TGFb-1 peptide, boxplots in the middle correspond to responses using homologous TGFb-2 peptides and boxplots on the right hand side correspond to responses using homologous TGFb-3 peptides.
FIG. 8. IFNγ ELISPOT to identify TGFb-1-selective immune responses. The same data shown in FIG. 7 were plotted to show responses for individual peptides and donors. […] Significant responses (*) were defined by a Fisher exact P value<0.01, a ratio of peptide to control spots>2, and background subtracted spots>25.
as §1, §2

[3] = tested on: splenocytes loaded with the assay peptide (SLP1_Ib); test: In vivo cytotoxicity assay; parameters: species or system mouse; conditions: analysed 18 hours after i.v. injection of labeled splenocytes
Description: FIG. 11. TGFb-1 vaccine promotes targeted in vivo cell killing. An in vivo cytotoxicity assay was used to compare cell killing in mice vaccinated with SLP1 versus the class I epitope SLP1_Ib (SIYMFFNT). Vaccinated mice (duplicates) were injected with differentially labeled splenocytes loaded with the assay peptide (SLP1_Ib) or a control peptide. Cell killing was determined by comparing the recovery of the splenocytes using control-peptide-loaded splenocytes as an internal control for cell recovery. OVA peptide was included as a positive control.
The in vivo cytotoxicity assay was performed by injecting peptide-loaded splenocytes from untreated donor mice into vaccinated mice. Freshly isolated splenocytes were incubated with 5 μM peptide in media (RPMI, 10% Fetal Bovine Serum) for 1 hour at 37 C. Splencoytes were loaded with assay peptide (SLP1_Ib) or control peptide (P53, AIYKKSQHM) separately. […] Cell killing was analyzed after 18 hours by isolating splenocytes from injected mice and comparing the recovery of FarRed and Violet labeled cells by flow cytometry. Specific killing of assay pulsed splenocytes was calculated as follows: […]

[4] = tested on: mice; test: IFNγ ELISPOT assay of immune responses in mice vaccinated with synthetic long peptides; assay type: in vivo, mouse; conditions: mice vaccinated with SLP; recall with minimal class I / class II peptides
Description: FIG. 9. TGFb-1 vaccine induces robust immune responses. Mice were vaccinated with two different synthetic long peptides (SLPs) and immune responses were analyzed by IFNγ ELISPOT assay. ELISPOT responses for individual mice are shown. Results for control peptides are clearly indicated.
(§3) For the MC38 tumor study, female C56/BL6 mice (Tacomic) were vaccinated with 100 μg of peptide (SEQ ID: 31 or SEQ ID NO: 34) prepared in DMSO and diluted in water to a total volume of 50 μl (per injection) before mixing with an equal volume of Montanide ISA51 VG ST adjuvant to form an emulsion. The vaccine formulation was administered subcutaneously (s.c.) at the tail base on Days 0, 7, and 14. MC38 tumor cells (2e5 per injection) were administered s.c. in the flank on day 0. Every 3 to 4 days, tumors were measured with a Vernier caliper and the tumor volume was calculated using the formula: V=L×W2/2, where V is tumor volume, L is the length of tumor (longer axis), and W is the width of the tumor (shorter axis).
A murine TGFb-1 vaccine was developed based on synthetic long peptides (SLPs) encoding predicted MHC class I and class II epitopes (SEQ ID NOs: 31-36 in Table 1 below). Pre-clinical studies of anti-TGFb therapies often fail to show any impact on tumor growth when administered as a monotherapy.

[5] = tested on: MC38 tumor; test: Analysis of tumor microenvironment (TME) by flow cytometry in MC38 tumor study; assay type: in vivo, mouse; conditions: vaccinated Days 0, 7, 14, termination day 21
Description: FIG. 10A-D. TGFb-1 vaccine drives derived immune permissive changes in the TME. Tumor weight was compared between groups at experiment termination (day 21). TGFB-1 expression was assayed by latency associated peptide (LAP) staining.
as §3
Freshly isolated tumors were dissociated by collagenase digestion to yield a single cell suspension for flow cytometry analysis. Approximately 1 million cells were stained for analysis by flow cytometry using a Symphony Al flow cytometer (BD, Becton Dickinson) with the following antibodies, anti-mouse LAP BV421 (BD, 565638), anti-mouse CD4 BV605 (BD, 743156) and anti-mouse CD8 BV786 (BD, 563332). Data analysis was performed using FlowJo software.

| Sequence | Positive Donors (out of 14) [1] | Median Spots [1] | TGFb-1 selectivity / cross-reactivity of IFNγ ELISPOT immune response to homologous TGFb-2 and TGFb-3 peptides [2] | other results |
| --- | --- | --- | --- | --- |
| DINGFTTGRRGDLATIHGMNRPFLLL [Pep07-1, polypeptide fragment of human TGFb-1, positions 235-260] | 5 | 12 |  |  |
| DMPPFFPSENAIPPTFYRPYFRIVREDVSAMEKNASNLV (DMPPFFPSENAIPPTFYRPYFRIVRFDVSAMEKNASNLV) [Pep01-2, homologous polypeptide fragment of human TGFb-2, positions 107-145, reference compound] |  |  | observed only once | Number of other donors in which cross reactivity was not observed ([2]; donors tested with Pep01-1/Pep01-2 peptide combination): 7 |
| DSRDNTLQVDINGFTTGRRGDLATIHGMNRPFLLL [Pep06-1, polypeptide fragment of human TGFb-1, positions 226-260] | 5 | 25 |  |  |
| KDISHSIYMFFNTSDIREAVPEPPL [SLP1] |  |  |  | Cytotoxic activity (specific killing) toward SLP1_Ib-loaded splenocytes in vaccinated mice [3]: results in cytotoxic activity toward cells loaded with the class I peptide antigen SLP1_Ib; Immune response by IFNγ ELISPOT in vaccinated mice [4]: recognition of minimal peptides encoding class I and class II epitopes |
| LMVETHNEIYDKFKQSTHSIYMFF [Pep03-1, polypeptide fragment of human TGFb-1, positions 112-135] | 6 | 16 |  |  |
| LMVETHNEIYDKFKQSTHSIYMFFNTSEL [Pep02-1, polypeptide fragment of human TGFb-1, positions 112-140] | 6 | 28 |  |  |
| LMVETHNEIYDKFKQSTHSIYMFFNTSELREAVPEPVLLS [Pep01-1, polypeptide fragment of human TGFb-1, positions 112-151] | 9 | 67 | strong and frequent immune responses in healthy donors that are selective to TGFb-1 |  |
| REAVPEPVLLSRAELRLLRL [Pep09-1, polypeptide fragment of human TGFb-1, positions 141-160] | 7 | 37 | strong and frequent immune responses in healthy donors that are selective to TGFb-1 |  |
| REAVPEPVLLSRAELRLLRLKLKVEQHVE [Pep11-1, polypeptide fragment of human TGFb-1, positions 141-169] | 5 | 14 |  |  |
| SIYMFFNT [SLP1_Ib, TGFb-1 positions 130-137] |  |  |  | Cytotoxic activity (specific killing) toward SLP1_Ib-loaded splenocytes in vaccinated mice [3]: cytotoxic activity was higher |
| SLDTQYSKVLALYNQHNPGASASP [SLP2] |  |  |  | CD4+ T cell infiltration in TME [5]: significantly enhanced; CD8+ T cell infiltration in TME [5]: remained unchanged; Immune response by IFNγ ELISPOT in vaccinated mice [4]: mainly induced class II response |
| TGRRGDLATIHGMNRPFLLL [Pep08-1, polypeptide fragment of human TGFb-1, positions 241-260] | 7 | 22 | strong and frequent immune responses in healthy donors that are selective to TGFb-1 |  |
| VKRKRIEAIRGQILSKLRLA [Pep12-1, reference compound] |  |  | induced immune responses that cross-reacted with homologous TGFb-2 and TGFb-3 peptides | TGFb-1 selectivity / cross-reactivity of IFNγ ELISPOT immune response to homologous TGFb-2 and TGFb-3 peptides ([2]; listed as Pep12): displayed cross-reactivity in all donors that exhibited significant responses to the TGFb-1 homolog |
| YDKFKQSTHSIYMFFNTSEL [Pep05-1, polypeptide fragment of human TGFb-1, positions 121-140] | 7 | 23 | strong and frequent immune responses in healthy donors that are selective to TGFb-1 |  |
| YDKFKQSTHSIYMFFNTSELREAVPEPVLLS [Pep04-1, polypeptide fragment of human TGFb-1, positions 121-151] | 7 | 34 | strong and frequent immune responses in healthy donors that are selective to TGFb-1 |  |
| YMFFNTSELREAVPEPVLLSRAELRLLRLKLKVEQHVE [Pep10-1, polypeptide fragment of human TGFb-1, positions 132-169] | 5 | 8 |  |  |
